Assay results published in patent publication US20120052057A9, “METHOD FOR SELECTING RESPONDERS TO BLOCKADE OF INTEGRIN RECEPTORS” (priority 2007, published 2012).
“Also recorded” adds a separate entry of the source.

Columns and labels:
[1] = target: T1, α2β1 integrin receptors (Homo sapiens, UniProt P05556+P17301); assay: PFA-100 platelet function analysis, whole blood closure time; assay type: cell-based; conditions: Collagen/ADP cartridges, vs untreated control
T1 construct: endogenous in cells; host or cells: platelets in anticoagulated whole blood of healthy donors
T1 sequence (P17301 30-1181): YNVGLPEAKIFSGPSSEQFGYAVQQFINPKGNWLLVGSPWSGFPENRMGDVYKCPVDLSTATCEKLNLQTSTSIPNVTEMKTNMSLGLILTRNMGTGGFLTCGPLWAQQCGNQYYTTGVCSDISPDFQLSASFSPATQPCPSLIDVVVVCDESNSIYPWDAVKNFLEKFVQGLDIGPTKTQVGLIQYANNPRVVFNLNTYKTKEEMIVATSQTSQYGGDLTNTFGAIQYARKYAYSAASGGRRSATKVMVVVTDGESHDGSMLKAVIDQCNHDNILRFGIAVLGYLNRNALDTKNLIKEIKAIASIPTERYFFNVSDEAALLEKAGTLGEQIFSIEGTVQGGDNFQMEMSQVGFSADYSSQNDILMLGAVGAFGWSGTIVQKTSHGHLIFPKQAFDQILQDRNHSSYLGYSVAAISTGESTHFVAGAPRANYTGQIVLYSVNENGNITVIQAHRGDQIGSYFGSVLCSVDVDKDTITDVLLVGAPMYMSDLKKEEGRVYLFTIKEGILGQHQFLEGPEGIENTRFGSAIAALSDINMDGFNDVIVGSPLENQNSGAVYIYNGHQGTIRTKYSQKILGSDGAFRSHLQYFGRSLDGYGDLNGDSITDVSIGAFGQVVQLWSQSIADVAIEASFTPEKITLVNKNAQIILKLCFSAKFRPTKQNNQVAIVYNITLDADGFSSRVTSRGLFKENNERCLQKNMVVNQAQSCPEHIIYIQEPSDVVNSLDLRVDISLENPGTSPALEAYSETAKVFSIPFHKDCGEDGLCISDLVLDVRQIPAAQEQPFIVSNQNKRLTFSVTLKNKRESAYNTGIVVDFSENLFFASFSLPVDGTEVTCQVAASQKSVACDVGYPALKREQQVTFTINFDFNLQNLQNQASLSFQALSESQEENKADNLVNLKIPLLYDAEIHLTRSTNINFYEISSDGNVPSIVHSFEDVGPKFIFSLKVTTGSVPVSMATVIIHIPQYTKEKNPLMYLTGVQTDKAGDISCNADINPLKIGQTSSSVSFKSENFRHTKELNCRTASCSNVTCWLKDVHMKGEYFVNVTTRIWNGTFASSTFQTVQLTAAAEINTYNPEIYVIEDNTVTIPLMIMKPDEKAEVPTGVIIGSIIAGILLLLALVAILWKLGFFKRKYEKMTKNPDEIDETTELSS
T1 sequence (P05556 21-798): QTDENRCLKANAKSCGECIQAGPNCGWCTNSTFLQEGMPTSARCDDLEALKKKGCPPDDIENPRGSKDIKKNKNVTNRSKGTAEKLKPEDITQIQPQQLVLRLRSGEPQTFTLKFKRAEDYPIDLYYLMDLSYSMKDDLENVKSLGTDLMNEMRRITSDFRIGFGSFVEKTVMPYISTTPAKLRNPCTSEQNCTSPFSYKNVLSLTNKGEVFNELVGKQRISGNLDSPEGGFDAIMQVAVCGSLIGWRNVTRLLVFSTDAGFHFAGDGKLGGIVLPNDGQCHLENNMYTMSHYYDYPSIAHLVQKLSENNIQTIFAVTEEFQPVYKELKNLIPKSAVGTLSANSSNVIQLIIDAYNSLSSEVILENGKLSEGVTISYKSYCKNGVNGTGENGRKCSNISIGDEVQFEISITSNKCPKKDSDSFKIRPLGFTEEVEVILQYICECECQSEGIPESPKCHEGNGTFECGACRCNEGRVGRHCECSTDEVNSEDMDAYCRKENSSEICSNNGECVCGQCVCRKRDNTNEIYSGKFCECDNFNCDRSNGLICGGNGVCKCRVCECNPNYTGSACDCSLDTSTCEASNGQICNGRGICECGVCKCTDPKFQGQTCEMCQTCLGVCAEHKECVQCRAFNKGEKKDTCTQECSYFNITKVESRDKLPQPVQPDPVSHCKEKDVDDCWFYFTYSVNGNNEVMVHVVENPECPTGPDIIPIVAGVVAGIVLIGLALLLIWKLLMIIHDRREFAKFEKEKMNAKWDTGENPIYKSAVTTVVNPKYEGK
Description: The responsiveness of the genotyped healthy volunteers to a treatment involving the blockade of α2β1 integrin receptors was assessed by measuring the effect of synthetic α2β1 integrin inhibitors, such as sulphonamide derivatives disclosed e.g. in WO 2005/090298, on whole blood closure time in PFA-100 platelet function analysis. The PFA-100 analyzer is a high shear-inducing device that simulates primary haemostasis after injury of a small vessel. The system comprises a test-cartridge containing a biologically active membrane coated with collagen plus adenosine diphosphate (ADP). An anticoaculated whole blood sample is run through a capillary under a constant vacuum. […] Synthetic α2β1 integrin inhibitor was added to the whole blood sample obtained from each healthy volunteer, and the closure time was measured with PFA-100. […]
The effect of a synthetic α2β1 integrin inhibitor, sodium salt of 4-({[3-(4-fluorophenyl)phenyl]sulfonyl}amino)phenyl phenyl ketone (BTT-3016), on whole blood closure time in PFA-100 analysis was determined for donors representing each genotypic population. […] Samples were incubated at room temperature for 10 min., dispensed into PFA Collagen/ADP cartridges, and closure time was determined with PFA-100 (Dade Behring).

[2] = target: T2, α2 integrin over expressing CHO cell clone (CHO-α2) (Homo sapiens, UniProt P17301); assay: Binding of C^14-labeled integrin inhibitor to CHO-α2 cells; conditions: for binding of labeled compound in the presence of EDTA: CHO-α2 cells, 20 mM EDTA, 10 μM compound
T2 construct: expressed in transfected cells; host or cells: CHO cell clone over-expressing α2 integrin (CHO-α2)
T2 sequence (P17301 30-1181): as the sequence (P17301 30-1181) above
T2 sequence (P05556 21-798 partner): as the sequence (P05556 21-798) above
Description: (§1) The binding of C^14-labeled integrin inhibitory compound, hydrochloride salt of [4-(dimethylamino)phenyl]{[3-(4-fluorophenyl)phenyl]-sulfonyl}methylamine, was studied with CHO-wt cells and α2 integrin over expressing CHO cell clone (CHO-α2). CHO-wt cells have no collagen receptor integrins on their cell surface. Cells were fixed in 2% formaldehyde in PBS. After that cells were washed and suspended in reaction buffer (50 mM Tris-HCl pH 7.4, 5 mM MgCl2). To all samples 10 μM C^14-labeled inhibitory compound was added and the cells were incubated in the presence or absence of 20 mM EDTA for 1 h in +4° C. 20000 cells from each sample were loaded to GF/B glass microfibre filter (Whatman) and the samples were washed with 10 mL of the reaction buffer. The membranes were put to scintillation buffer (Optiphase HiSafe3, Perkin Elmer) and the activity was measured with the scintillation counter (Wallac 1415).

[3] = tested on: CHO-wt cells; assay: Binding of C^14-labeled integrin inhibitor to CHO-wt cells; conditions: 20 mM EDTA, 10 μM compound, listed as C^u-labeled integrin inhibitor
Description: as §1

Structure (SMILES) | effect on whole blood closure time ([1]; donors with high α2β1 expression (MEF≧35), genotype TT807 or CT807) | effect on whole blood closure time ([1]; donors with low integrin expression, genotype CC807) | binding of labeled compound to cells ([2]; 10 μM C^14-labeled compound, 1 h, +4° C, CHO-α2 compared with CHO-wt) | binding of labeled compound in the presence of EDTA [2] | binding of labeled compound in the presence of EDTA ([2]; listed as C^u-labeled integrin inhibitor) | binding of labeled compound in the presence of EDTA [3]
O=C(c1ccccc1)c1ccc(NS(=O)(=O)c2cccc(-c3ccc(F)cc3)c2)cc1 [BTT-3016, 4-({[3-(4-fluorophenyl)phenyl]sulfonyl}amino)phenyl phenyl ketone] | increases the blood closure time; also recorded: increase the closure time statistically significantly | non-responsive; also recorded: not efficacious | – | – | – | –
CN(C)c1ccc(NCS(=O)(=O)c2cccc(-c3ccc(F)cc3)c2)cc1 [[4-(dimethylamino)phenyl]{[3-(4-fluorophenyl)phenyl]-sulfonyl}methylamine] | – | – | bound more efficiently to CHO-α2 cells than to CHO-wt cells | could be inhibited | EDTA inhibits the binding | not to CHO-wild type (wt) cells
